Measured values as given in PMC10257182, “Discovery of senolytics using machine learning” (Nature Communications, 2023).
Where “and” joins values, the source holds several entries; their conditions need not be identical. Equal entries are not always repeated. Where two headings read alike, the source gives them in different places.

Assays:
Type in all cases: cell-based, human
[1] = test system: senescent IMR90 ER:RAS cells (4-OHT-induced); experiment: Nuclei count (Hoechst, high content imaging) senolytic assay, oncogene-induced senescence (OIS) model, senescent cells
Outline: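 IMR90 ER:RAS (p14), ±4-OHT 100 nM; cpd 10 nM–10 μM, 10-pt […], 72 h, n=3. Fix formaldehyde, Triton X-100, Hoechst 2 μg/ml final. Readout: imaged nuclei count vs untreated; ouabain positive control.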

[2] = test system: senescent A549 cells (etoposide-induced); experiment: Nuclei count senolytic assay, therapy-induced senescence (TIS) model, senescent cells; details: for % Cell Survival: senescence cells, single replicate
Outline: (§1)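 Etoposide 100 μM, 48 h, + 3 d standard media → senescent A549; untreated A549 = controls. 24 h post-seeding, cpds 10 nM–10 μM final, 10-pt […], 72 h, n=3. Fix formaldehyde, permeabilise Triton-X100, Hoechst 2 μg/ml, image, count nuclei.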

[3] = test system: non-senescent control A549 cells; experiment: Nuclei count senolytic assay, TIS model, non-senescent control cells; details: for % Cell Survival: control cells, single replicate
Outline: as §1

COc1cc(O)c2c(=O)cc(-c3ccc(OC)c(-c4c(O)cc(O)c5c(=O)cc(-c6ccc(O)cc6)oc45)c3)oc2c1 [Ginkgetin, ginkgetin]
viability at 10 µM ([1]; Homo sapiens, IMR-90, 72 h, Senescent, log (dose) [M] -5, 72 h, mean n=3 (Fig 3C), read-out: Mean % Cell Survival): 5.11%
viability at 4.677 µM ([1]; Homo sapiens, IMR-90, 72 h, Senescent, log (dose) [M] -5.33, 72 h, mean n=3 (Fig 3C), read-out: Mean % Cell Survival): 9.69%
viability at 2.188 µM ([1]; Homo sapiens, IMR-90, 72 h, Senescent, log (dose) [M] -5.66, 72 h, mean n=3 (Fig 3C), read-out: Mean % Cell Survival): 80%
viability at 1 µM ([1]; Homo sapiens, IMR-90, 72 h, Senescent, log (dose) [M] -6, 72 h, mean n=3 (Fig 3C), read-out: Mean % Cell Survival): 93.5%
viability at 0.4677 µM ([1]; Homo sapiens, IMR-90, 72 h, Senescent, log (dose) [M] -6.33, 72 h, mean n=3 (Fig 3C), read-out: Mean % Cell Survival): 108%
viability at 0.2188 µM ([1]; Homo sapiens, IMR-90, 72 h, Senescent, log (dose) [M] -6.66, 72 h, mean n=3 (Fig 3C), read-out: Mean % Cell Survival): 95.6%
viability at 0.1 µM ([1]; Homo sapiens, IMR-90, 72 h, Senescent, log (dose) [M] -7, 72 h, mean n=3 (Fig 3C), read-out: Mean % Cell Survival): 105%
viability at 0.04677 µM ([1]; Homo sapiens, IMR-90, 72 h, Senescent, log (dose) [M] -7.33, 72 h, mean n=3 (Fig 3C), read-out: Mean % Cell Survival): 113%
viability at 0.02188 µM ([1]; Homo sapiens, IMR-90, 72 h, Senescent, log (dose) [M] -7.66, 72 h, mean n=3 (Fig 3C), read-out: Mean % Cell Survival): 105%
viability at 0.01 µM ([1]; Homo sapiens, IMR-90, 72 h, Senescent, log (dose) [M] -8, 72 h, mean n=3 (Fig 3C), read-out: Mean % Cell Survival): 110%
viability at 10 µM ([1]; Homo sapiens, IMR-90, senescence, log (dose) [M] -5, individual replicates (Fig 3D), read-out: % Cell Survival): 4.7%
viability at 2.188 µM ([1]; Homo sapiens, IMR-90, senescence, log (dose) [M] -5.66, individual replicates (Fig 3D), read-out: % Cell Survival): 71.2%
viability at 0.04677 µM ([1]; Homo sapiens, IMR-90, senescence, log (dose) [M] -7.33, individual replicates (Fig 3D), read-out: % Cell Survival): 116%
IC50 ([1]; Homo sapiens, IMR-90, OIS model, 4-OHT-induced IMR90 ER:RAS, nuclei count, 72 h): 2.6 µM
dose showing the clearest senolytic effect ([1]; OIS IMR90 ER:RAS, Hoechst nuclei count, marginal effect on normal cells): 4.6 µM
senolytic activity (in words) ([1]; experimental screen, OIS IMR90 ER:RAS): clear senolytic action
viability at 10 µM ([2]; Homo sapiens, A549, log (dose) [M] -5, Senescent cells, mean, read-out: Mean % Cell Survival): 25.9%
viability at 4.68 µM ([2]; Homo sapiens, A549, log (dose) [M] -5.33, Senescent cells, mean, read-out: Mean % Cell Survival): 55.3%
viability at 2.19 µM ([2]; Homo sapiens, A549, log (dose) [M] -5.66, Senescent cells, mean, read-out: Mean % Cell Survival): 103%
viability at 1 µM ([2]; Homo sapiens, A549, log (dose) [M] -6, Senescent cells, mean, read-out: Mean % Cell Survival): 115%
viability at 0.468 µM ([2]; Homo sapiens, A549, log (dose) [M] -6.33, Senescent cells, mean, read-out: Mean % Cell Survival): 104%
viability at 0.219 µM ([2]; Homo sapiens, A549, log (dose) [M] -6.66, Senescent cells, mean, read-out: Mean % Cell Survival): 126%
viability at 0.1 µM ([2]; Homo sapiens, A549, log (dose) [M] -7, Senescent cells, mean, read-out: Mean % Cell Survival): 85.3%
viability at 0.0468 µM ([2]; Homo sapiens, A549, log (dose) [M] -7.33, Senescent cells, mean, read-out: Mean % Cell Survival): 89.9%
viability at 0.0219 µM ([2]; Homo sapiens, A549, log (dose) [M] -7.66, Senescent cells, mean, read-out: Mean % Cell Survival): 99.8%
viability at 0.01 µM ([2]; Homo sapiens, A549, log (dose) [M] -8, Senescent cells, mean, read-out: Mean % Cell Survival): 95.8%
IC50 ([2]; Homo sapiens, TIS model, etoposide-induced senescent A549, nuclei count, 72 h): 5.7 µM
concentration at which a senolytic effect was reached ([2]; TIS A549, Hoechst labelling, marginal or no effect on normal cells): 4.64 µM
senolytic action (in words) ([2]; experimental screen, TIS senescent A549): strong senolytic action
% Cell Survival ([2]; log (dose) [M] -5): 26.9419% and 20.9924% and 29.7526%
% Cell Survival ([2]; log (dose) [M] -5.33): 57.8726% and 51.7176% and 56.1849%
% Cell Survival ([2]; log (dose) [M] -5.66): 111.826% and 87.7863% and 107.943%
% Cell Survival ([2]; log (dose) [M] -6): 147.166% and 101.59% and 95.3776%
% Cell Survival ([2]; log (dose) [M] -6.33): 97.7607% and 104.262% and 110.807%
% Cell Survival ([2]; log (dose) [M] -6.66): 107.348% and 137.468% and 133.789%
% Cell Survival ([2]; log (dose) [M] -7): 106.298% and 85.6234% and 63.9323%
% Cell Survival ([2]; log (dose) [M] -7.33): 97.7607% and 95.0382% and 76.8229%
% Cell Survival ([2]; log (dose) [M] -7.66): 110.287% and 102.735% and 86.4583%
% Cell Survival ([2]; log (dose) [M] -8): 107.348% and 95.9288% and 84.0495%
viability at 10 µM ([3]; Homo sapiens, A549, log (dose) [M] -5, Control cells, mean, read-out: Mean % Cell Survival): 56.2%
viability at 4.68 µM ([3]; Homo sapiens, A549, log (dose) [M] -5.33, Control cells, mean, read-out: Mean % Cell Survival): 65.7%
viability at 2.19 µM ([3]; Homo sapiens, A549, log (dose) [M] -5.66, Control cells, mean, read-out: Mean % Cell Survival): 98.7%
viability at 1 µM ([3]; Homo sapiens, A549, log (dose) [M] -6, Control cells, mean, read-out: Mean % Cell Survival): 85.7%
viability at 0.468 µM ([3]; Homo sapiens, A549, log (dose) [M] -6.33, Control cells, mean, read-out: Mean % Cell Survival): 31.8%
viability at 0.219 µM ([3]; Homo sapiens, A549, log (dose) [M] -6.66, Control cells, mean, read-out: Mean % Cell Survival): 96.2%
viability at 0.1 µM ([3]; Homo sapiens, A549, log (dose) [M] -7, Control cells, mean, read-out: Mean % Cell Survival): 94%
viability at 0.0468 µM ([3]; Homo sapiens, A549, log (dose) [M] -7.33, Control cells, mean, read-out: Mean % Cell Survival): 96.8%
viability at 0.0219 µM ([3]; Homo sapiens, A549, log (dose) [M] -7.66, Control cells, mean, read-out: Mean % Cell Survival): 95.6%
viability at 0.01 µM ([3]; Homo sapiens, A549, log (dose) [M] -8, Control cells, mean, read-out: Mean % Cell Survival): 68.4%
IC50 ([3]; Homo sapiens, TIS model, non-senescent A549, nuclei count, 72 h): 10.4 µM
% Cell Survival ([3]; log (dose) [M] -5): 52.2043% and 59.0944% and 57.4435%
% Cell Survival ([3]; log (dose) [M] -5.33): 97.7607% and 99.3093%
% Cell Survival ([3]; log (dose) [M] -5.66): 91.6025% and 99.9233% and 104.599%
% Cell Survival ([3]; log (dose) [M] -6): 75.5773% and 89.4858% and 92.1278%
% Cell Survival ([3]; log (dose) [M] -6.33): 95.472%
% Cell Survival ([3]; log (dose) [M] -6.66): 87.9636% and 100.998% and 99.7662%
% Cell Survival ([3]; log (dose) [M] -7): 85.4444% and 99.693% and 96.7264%
% Cell Survival ([3]; log (dose) [M] -7.33): 92.3723% and 99.3093% and 98.675%
% Cell Survival ([3]; log (dose) [M] -7.66): 89.3632% and 102.916% and 94.4661%
% Cell Survival ([3]; log (dose) [M] -8): 103.761% and 101.325%
